Reference: ChEMBL document CHEMBL1201862, “PubChem BioAssay data set” (2004)
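48-hour exposure; five concentrations; linearly interpolated endpoints. The concentration for 50% growth inhibition is given as GI50.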 Calls of active or inactive are those of the source. Cut-off read from the data, not from the text of the source: active = GI50 up to about 1.1 µM and inactive = higher.

What was measured:
Assay in all cases: NCI anticancer screen, dose series, 48 h
[1] = test system: ACHN
[2] = test system: BT-549
[3] = test system: CAKI-1
[4] = test system: COLO 205
[5] = test system: HCC 2998
[6] = test system: Hs-578T
[7] = test system: MCF7
[8] = test system: NCI-H460
[9] = test system: NCI/ADR-RES
[10] = test system: OVCAR-8
[11] = test system: PC-3
[12] = test system: SK-MEL-28
[13] = test system: SK-MEL-2
[14] = test system: SNB-75
[15] = test system: SR
[16] = test system: T47D
[17] = test system: UACC-62
[18] = test system: LOX IMVI
[19] = test system: RPMI-8226
[20] = test system: SK-MEL-5

In the case of O=C1CC(=O)NC(NN2C(=O)/C(=C/C(=O)c3ccco3)N=C2c2ccccc2)=N1, the GI50 [1] is reported as > 100 µM (inactive), the GI50 [2] is reported as 36.6 µM (inactive) and the GI50 [3] is reported as > 100 µM (inactive). The GI50 [4] was > 100 µM (inactive), the GI50 [5] was > 100 µM (inactive) and the GI50 [6] was 27.7 µM (inactive). The GI50 [7] was 95.1 µM (inactive), the GI50 [8] was 30.3 µM (inactive) and the GI50 [9] was 41.1 µM (inactive). For the same molecule, the GI50 [10] was 44.5 µM (inactive), the GI50 [11] was 29.4 µM (inactive) and the GI50 [12] was > 100 µM (inactive). For the same molecule, the GI50 [13] was 92.7 µM (inactive), the GI50 [14] was 22.2 µM (inactive) and the GI50 [15] was 14.6 µM (inactive). The GI50 [16] was 70.1 µM (inactive) and the GI50 [17] was 37.7 µM (inactive).

For C/C(=N/O)c1cccc(Nc2nc3ccc(Cl)cc3c3[nH]c4ccccc4c23)c1, the GI50 [1] was 0.929 µM (active), the GI50 [2] was 2.93 µM (inactive) and the GI50 [3] was 2.24 µM (inactive). For the same molecule, the GI50 [4] was 1.77 µM (inactive), the GI50 [6] was 2.65 µM (inactive) and the GI50 [18] was 1.91 µM (inactive). For the same molecule, the GI50 [7] was 0.935 µM (active), the GI50 [8] was 1.14 µM (inactive) and the GI50 [9] was 1.92 µM (inactive). For the same molecule, the GI50 [10] was 1.93 µM (inactive), the GI50 [11] was 1.79 µM (inactive) and the GI50 [19] was 1.66 µM (inactive). For the same molecule, the GI50 [12] was 2.12 µM (inactive), the GI50 [13] was 1.93 µM (inactive) and the GI50 [20] was 1.18 µM (inactive). The GI50 [14] was < 0.01 µM (active), the GI50 [15] was 1.24 µM (inactive) and the GI50 [16] was 1.58 µM (inactive). For the same molecule, the GI50 [17] was 1.83 µM (inactive).

In the case of CC(C)C(C/C=C1/CC(CO)(COC(=O)C(C)(C)C)OC1=O)C(C)C (stereo unspecified), the GI50 [1] is reported as 5.9 µM (inactive), the GI50 [2] is reported as 13.5 µM (inactive) and the GI50 [3] is reported as 3.3 µM (inactive). For the same molecule, the GI50 [4] was 0.0678 µM (active), the GI50 [5] was 3.1 µM (inactive) and the GI50 [6] was 0.735 µM (active). For the same molecule, the GI50 [18] was 12.3 µM (inactive), the GI50 [7] was 18.4 µM (inactive) and the GI50 [8] was 7.76 µM (inactive). The GI50 [9] was 15.7 µM (inactive), the GI50 [10] was 19 µM (inactive) and the GI50 [11] was 6.24 µM (inactive). The GI50 [12] was 15.9 µM (inactive), the GI50 [13] was 15.1 µM (inactive) and the GI50 [20] was 4.52 µM (inactive). The GI50 [14] was 5.45 µM (inactive), the GI50 [15] was 14.9 µM (inactive) and the GI50 [16] was 4.52 µM (inactive). For the same molecule, the GI50 [17] was 12.9 µM (inactive).

With COC(=O)Nc1nc2cc(S(=O)(=O)n3nnc4ccccc43)ccc2[nH]1 the GI50 [1] was 59.4 µM (inactive), the GI50 [2] was 17.6 µM (inactive) and the GI50 [3] was 54.2 µM (inactive). The GI50 [4] was > 100 µM (inactive), the GI50 [6] was 21.3 µM (inactive) and the GI50 [18] was > 100 µM (inactive). For the same molecule, the GI50 [7] was 28.1 µM (inactive), the GI50 [8] was > 100 µM (inactive) and the GI50 [9] was > 100 µM (inactive). The GI50 [10] was > 100 µM (inactive), the GI50 [11] was 35 µM (inactive) and the GI50 [19] was 0.708 µM (active). For the same molecule, the GI50 [12] was > 100 µM (inactive), the GI50 [13] was > 100 µM (inactive) and the GI50 [20] was > 100 µM (inactive). The GI50 [14] was 6.62 µM (inactive), the GI50 [15] was 75.2 µM (inactive) and the GI50 [16] was 37.8 µM (inactive). For the same molecule, the GI50 [17] was 41.5 µM (inactive).

For N#Cc1ccc(OC(=O)c2ccc(NC(=N)N)cc2)cc1.c1ccncc1, the GI50 [1] was > 100 µM (inactive), the GI50 [2] was 88.7 µM (inactive) and the GI50 [3] was 80 µM (inactive). For the same molecule, the GI50 [4] was 39.1 µM (inactive), the GI50 [6] was > 100 µM (inactive) and the GI50 [18] was 80.7 µM (inactive). For the same molecule, the GI50 [7] was 39.9 µM (inactive), the GI50 [8] was > 100 µM (inactive) and the GI50 [9] was > 100 µM (inactive). The GI50 [10] was > 100 µM (inactive), the GI50 [11] was > 100 µM (inactive) and the GI50 [19] was 40.8 µM (inactive). The GI50 [12] was > 100 µM (inactive), the GI50 [13] was > 100 µM (inactive) and the GI50 [20] was > 100 µM (inactive). For the same molecule, the GI50 [14] was 43.9 µM (inactive), the GI50 [15] was 51.9 µM (inactive) and the GI50 [16] was 42.5 µM (inactive). The GI50 [17] was > 100 µM (inactive).

O=C1NC(N2CCCCC2)=N/C1=C\c1ccccc1 was tested, and the GI50 [1] was > 100 µM (inactive), the GI50 [2] was > 100 µM (inactive) and the GI50 [3] was > 100 µM (inactive). For the same molecule, the GI50 [4] was > 100 µM (inactive), the GI50 [5] was > 100 µM (inactive) and the GI50 [6] was > 100 µM (inactive). The GI50 [18] was > 100 µM (inactive), the GI50 [7] was > 100 µM (inactive) and the GI50 [9] was > 100 µM (inactive). The GI50 [10] was > 100 µM (inactive), the GI50 [11] was > 100 µM (inactive) and the GI50 [19] was > 100 µM (inactive). The GI50 [12] was > 100 µM (inactive), the GI50 [13] was > 100 µM (inactive) and the GI50 [14] was > 100 µM (inactive). For the same molecule, the GI50 [15] was > 100 µM (inactive), the GI50 [16] was > 100 µM (inactive) and the GI50 [17] was > 100 µM (inactive).
